Twelve compounds from patent publication US12091426B2, “Bifunctional degraders of hematopoietic progenitor kinase and therapeutic uses thereof” (Nurix Therapeutics, Inc., priority 2021, dated 2024) can be followed below.

Each structure is given as a SMILES string. Bounds are passed on as bounds.

The target of the assay is T1, HPK1 (Homo sapiens, UniProt Q92918).
T1 construct: A HiBiT tag was introduced by CRISPR on the N terminus of HPK1 in Jurkat cells; host or cells: Jurkat cells (ATCC TIB-152), monoclonal line with CRISPR knock-in of HiBiT at the endogenous HPK1 locus
Briefly: HPK1 Cellular HiBit Degradation Assay. The assay is classed as cell-based. The settings on record: HiBiT HPK1 Jurkat cells, 24 hrs; for DC50: concentration at which 50% of HPK1 was remaining, read-out: DC50 Category; for Dmax: Jurkat, maximum degradation vs DMSO vehicle control, read-out: Dmax Category. A digest of the protocol: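 HPK1 levels are read by HiBiT luminescence after 24 h exposure of HiBiT-knock-in Jurkat cells to compound at 10 uM–0.1 nM final (11 points). Relative to DMSO (100%), DC50 is the concentration leaving 50% HPK1 from a variable-slope fit, and Dmax is 100 minus minimum remaining. Viability checked in-plate.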
A general note: With HiBiT, luminescence reflects the tagged protein that the partner subunit can reach.

T1 sequence (Q92918 whole entry): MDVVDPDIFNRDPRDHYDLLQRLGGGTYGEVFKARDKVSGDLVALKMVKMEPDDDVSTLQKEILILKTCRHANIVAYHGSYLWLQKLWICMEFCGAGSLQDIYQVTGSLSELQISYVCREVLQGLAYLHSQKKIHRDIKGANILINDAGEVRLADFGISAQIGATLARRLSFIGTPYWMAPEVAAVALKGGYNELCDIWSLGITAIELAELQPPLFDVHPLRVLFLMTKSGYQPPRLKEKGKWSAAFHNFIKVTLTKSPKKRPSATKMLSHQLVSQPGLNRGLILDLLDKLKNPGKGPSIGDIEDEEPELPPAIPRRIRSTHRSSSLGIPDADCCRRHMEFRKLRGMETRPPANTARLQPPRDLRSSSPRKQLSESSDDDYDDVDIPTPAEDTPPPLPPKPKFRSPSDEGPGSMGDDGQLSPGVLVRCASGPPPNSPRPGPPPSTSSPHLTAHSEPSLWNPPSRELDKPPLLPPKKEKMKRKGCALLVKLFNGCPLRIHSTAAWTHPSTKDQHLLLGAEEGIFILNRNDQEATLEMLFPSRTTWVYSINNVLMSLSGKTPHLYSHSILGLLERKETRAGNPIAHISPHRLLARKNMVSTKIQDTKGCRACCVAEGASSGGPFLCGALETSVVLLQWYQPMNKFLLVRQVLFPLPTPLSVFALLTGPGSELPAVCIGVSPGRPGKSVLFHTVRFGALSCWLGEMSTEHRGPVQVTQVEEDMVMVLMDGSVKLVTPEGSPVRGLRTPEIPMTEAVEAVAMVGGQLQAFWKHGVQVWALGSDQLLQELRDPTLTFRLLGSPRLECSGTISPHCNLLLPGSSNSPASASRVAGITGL

Consider `COC1CN(C(=O)C2CCN(c3ccc(C4CCC(=O)NC4=O)cc3)CC2)CCC1C(=O)N1CCC2(CC1)C(=O)N([C@H]1C[C@@H](N3CCCCC3)C1)c1cc(-c3cc4ncn(C(C)C)c4c(NC4CC4)n3)ccc12` (mixture of isomers) [Example 257, (3RS)-3-(4-{4-[4-({6-[4-(cyclopropylamino)-3-(propan-2-yl)-3H-imidazo[4,5-c]pyridin-6-yl]-2-oxo-1-[(1S,3S)-3-(piperidin-1-yl)cyclobutyl]-1,2-dihydrospiro[indole-3,4′-piperidin]-1′-yl}carbonyl)-3-methoxypiperidine-1-carbonyl]piperidin-1-yl}phenyl)piperidine-2,6-dione], for which the DC50 (commonly the midpoint of the concentration-degradation curve) was less than 100 nM and the maximal degradation (Dmax) (commonly the greatest extent of degradation seen) lay within 50 to 70%.
For `CC(C)n1cnc2cc(-c3ccc4c(c3)N([C@H]3C[C@@H](N5CCCCC5)C3)C(=O)C43CCN(C(=O)C4(C#N)CCN(C(=O)C5CCN(c6ccc(C7CCC(=O)NC7=O)cc6)CC5)CC4)CC3)nc(NC3CC3)c21` (mixture of isomers) [Example 258, 4-({6-[4-(cyclopropylamino)-3-(propan-2-yl)-3H-imidazo[4,5-c]pyridin-6-yl]-2-oxo-1-[(1S,3S)-3-(piperidin-1-yl)cyclobutyl]-1,2-dihydrospiro[indole-3,4′-piperidin]-1′-yl}carbonyl)-1-(1-{4-[(3RS)-2,6-dioxopiperidin-3-yl]phenyl}piperidine-4-carbonyl)piperidine-4-carbonitrile] the same measures were less than 100 nM and 70 to 85%.
For `CC(C)n1cnc2cc(-c3ccc4c(c3)N([C@H]3C[C@@H](N5CCCCC5)C3)C(=O)C43CCN(C(=O)[C@@]45C[C@@H]4CN(C(=O)C4CCN(c6ccc(C7CCC(=O)NC7=O)cn6)CC4)C5)CC3)nc(NC3CC3)c21` (mixture of isomers) [Example 259, (3RS)-3-(6-{4-[(1S,5S)-1-({6-[4-(cyclopropylamino)-3-(propan-2-yl)-3H-imidazo[4,5-c]pyridin-6-yl]-2-oxo-1-[(1S,3S)-3-(piperidin-1-yl)cyclobutyl]-1,2-dihydrospiro[indole-3,4′-piperidin]-1′-yl}carbonyl)-3-azabicyclo[3.1.0]hexane-3-carbonyl]piperidin-1-yl}pyridin-3-yl)piperidine-2,6-dione] the same measures were less than 100 nM and 70 to 85%.
On the same counts, the results for `CC(C)n1cnc2cc(-c3ccc4c(c3)N([C@H]3C[C@@H](N5CCCCC5)C3)C(=O)C43CCN(C(=O)[C@H]4[C@@H]5CN(C(=O)C6CCN(c7ccc(C8CCC(=O)NC8=O)cn7)CC6)C[C@@H]54)CC3)nc(NC3CC3)c21` (mixture of isomers) [Example 260, (3RS)-3-(6-{4-[(1R,5S,6S)-6-({6-[4-(cyclopropylamino)-3-(propan-2-yl)-3H-imidazo[4,5-c]pyridin-6-yl]-2-oxo-1-[(1S,3S)-3-(piperidin-1-yl)cyclobutyl]-1,2-dihydrospiro[indole-3,4′-piperidin]-1′-yl}carbonyl)-3-azabicyclo[3.1.0]hexane-3-carbonyl]piperidin-1-yl}pyridin-3-yl)piperidine-2,6-dione] are less than 100 nM and 70 to 85%.
For `CC(C)n1cnc2cc(-c3ccc4c(c3)N([C@H]3C[C@@H](N5CCCCC5)C3)C(=O)C43CCN(C(=O)[C@H]4C[C@H]5C[C@@H]4CN5C(=O)C4CCN(c5ccc(C6CCC(=O)NC6=O)cn5)CC4)CC3)nc(NC3CC3)c21` (mixture of isomers) [Example 261, (3RS)-3-(6-{4-[(1R,4S,5S)-5-({6-[4-(cyclopropylamino)-3-(propan-2-yl)-3H-imidazo[4,5-c]pyridin-6-yl]-2-oxo-1-[(1S,3S)-3-(piperidin-1-yl)cyclobutyl]-1,2-dihydrospiro[indole-3,4′-piperidin]-1′-yl}carbonyl)-2-azabicyclo[2.2.1]heptane-2-carbonyl]piperidin-1-yl}pyridin-3-yl)piperidine-2,6-dione], the DC50 was less than 100 nM and the greatest degradation seen (Dmax) is 70 to 85%.
On the same counts, the results for `CC(C)n1cnc2cc(-c3ccc4c(c3)N([C@H]3C[C@@H](N5CCCCC5)C3)C(=O)C43CCN(C(=O)[C@@H]4C[C@H]5CC[C@@H](C4)N5C(=O)C4CCN(c5ccc(C6CCC(=O)NC6=O)cc5)CC4)CC3)nc(NC3CC3)c21` (mixture of isomers) [Example 262, (3RS)-3-(4-{4-[(1R,3R,5S)-3-({6-[4-(cyclopropylamino)-3-(propan-2-yl)-3H-imidazo[4,5-c]pyridin-6-yl]-2-oxo-1-[(1S,3S)-3-(piperidin-1-yl)cyclobutyl]-1,2-dihydrospiro[indole-3,4′-piperidin]-1′-yl}carbonyl)-8-azabicyclo[3.2.1]Octane-8-carbonyl]piperidin-1-yl}phenyl)piperidine-2,6-dione] are less than 100 nM and 70 to 85%.
In the case of `CC(C)n1cnc2cc(-c3ccc4c(c3)N([C@H]3C[C@@H](N5CCCCC5)C3)C(=O)C43CCN(C(=O)[C@]45C[C@H]4CN(C(=O)C4CCN(c6ccc(C7CCC(=O)NC7=O)cc6)CC4)C5)CC3)nc(NC3CC3)c21` (mixture of isomers) [Example 263, (3RS)-3-(4-{4-[(1R,5R)-1-({6-[4-(cyclopropylamino)-3-(propan-2-yl)-3H-imidazo[4,5-c]pyridin-6-yl]-2-oxo-1-[(1S,3S)-3-(piperidin-1-yl)cyclobutyl]-1,2-dihydrospiro[indole-3,4′-piperidin]-1′-yl}carbonyl)-3-azabicyclo[3.1.0]hexane-3-carbonyl]piperidin-1-yl}phenyl)piperidine-2,6-dione], the DC50 is less than 100 nM and the Dmax was in the range of 50 to 70%.
For `CC(C)n1cnc2cc(-c3ccc4c(c3)N([C@H]3C[C@@H](N5CCCCC5)C3)C(=O)C43CCN(C(=O)[C@@H]4CCCN(C(=O)C5CCN(c6ccc(C7CCC(=O)NC7=O)cn6)CC5)C4)CC3)nc(NC3CC3)c21` (mixture of isomers) [Example 264, (3RS)-3-(6-{4-[(3R)-3-({6-[4-(cyclopropylamino)-3-(propan-2-yl)-3H-imidazo[4,5-c]pyridin-6-yl]-2-oxo-1-[(1S,3S)-3-(piperidin-1-yl)cyclobutyl]-1,2-dihydrospiro[indole-3,4′-piperidin]-1′-yl}carbonyl)piperidine-1-carbonyl]piperidin-1-yl}pyridin-3-yl)piperidine-2,6-dione] the same measures were less than 100 nM and 70 to 85%.
On the same counts, the results for `CC(C)n1cnc2cc(-c3ccc4c(c3)N([C@H]3C[C@@H](N5CCCCC5)C3)C(=O)C43CCN(C(=O)[C@@H]4C[C@@H]5C[C@H]4CN5C(=O)C4CCN(c5ccc(C6CCC(=O)NC6=O)cn5)CC4)CC3)nc(NC3CC3)c21` (mixture of isomers) [Example 265, (3RS)-3-(6-{4-[(S,4R,5R)-5-({6-[4-(cyclopropylamino)-3-(propan-2-yl)-3H-imidazo[4,5-c]pyridin-6-yl]-2-oxo-1-[(1S,3S)-3-(piperidin-1-yl)cyclobutyl]-1,2-dihydrospiro[indole-3,4′-piperidin]-1′-yl}carbonyl)-2-azabicyclo[2.2.1]heptane-2-carbonyl]piperidin-1-yl}pyridin-3-yl)piperidine-2,6-dione] are less than 100 nM and 70 to 85%.
For `CC(C)n1cnc2cc(-c3ccc4c(c3)N([C@H]3C[C@@H](N5CCCCC5)C3)C(=O)C43CCN(C(=O)[C@@H]4[C@H]5CCN(C(=O)C6CCN(c7ccc(C8CCC(=O)NC8=O)cn7)CC6)[C@H]54)CC3)nc(Nc3ccccc3F)c21` (mixture of isomers) [Example 266, (3RS)-3-(6-{4-[(1R,5R,6R)-6-[(6-{4-[(2-fluorophenyl)amino]-3-(propan-2-yl)-3H-imidazo[4,5-c]pyridin-6-yl}-2-oxo-1-[(1S,3S)-3-(piperidin-1-yl)cyclobutyl]-1,2-dihydrospiro[indole-3,4′-piperidin]-1′-yl)carbonyl]-2-azabicyclo[3.1.0]hexane-2-carbonyl]piperidin-1-yl}pyridin-3-yl)piperidine-2,6-dione] the same measures were less than 100 nM and 70 to 85%.
Regarding `CC(C)n1cnc2cc(-c3ccc4c(c3)N([C@H]3C[C@@H](N5CCCCC5)C3)C(=O)C43CCN(C(=O)C4CN(C(=O)C5CCN(c6ccc(C7CCC(=O)NC7=O)cn6)CC5)CC5(CCC5)C4)CC3)nc(NC3CC3)c21` (mixture of isomers) [Example 267, (3RS)-3-(6-{4-[8-({6-[4-(cyclopropylamino)-3-(propan-2-yl)-3H-imidazo[4,5-c]pyridin-6-yl]-2-oxo-1-[(1S,3S)-3-(piperidin-1-yl)cyclobutyl]-1,2-dihydrospiro[indole-3,4′-piperidin]-1′-yl}carbonyl)-6-azaspiro[3.5]nonane-6-carbonyl]piperidin-1-yl}pyridin-3-yl)piperidine-2,6-dione], the 50% degradation concentration (DC50) was less than 100 nM and the maximal degradation (Dmax) was in the range of 50 to 70%.
Regarding `CC(C)n1cnc2cc(-c3ccc4c(c3)N([C@H]3C[C@@H](N5CCCCC5)C3)C(=O)C43CCN(C(=O)C4CN(C(=O)C5CCN(c6ccc(C7CCC(=O)NC7=O)cc6)CC5)CC(F)(F)C4)CC3)nc(NC3CC3)c21` (mixture of isomers) [Example 268, (3RS)-3-(4-{4-[5-({6-[4-(cyclopropylamino)-3-(propan-2-yl)-3H-imidazo[4,5-c]pyridin-6-yl]-2-oxo-1-[(1S,3S)-3-(piperidin-1-yl)cyclobutyl]-1,2-dihydrospiro[indole-3,4′-piperidin]-1′-yl}carbonyl)-3,3-Difluoropiperidine-1-carbonyl]piperidin-1-yl}phenyl)piperidine-2,6-dione], the DC50 fell in the range of 100 to 500 nM and the Dmax fell in the range of 50 to 70%.
